Reference: publication PMC10515640, “Structure-Based Optimization of Covalent, Small-Molecule Stabilizers of the 14-3-3σ/ERα Protein–Protein Interaction from Nonselective Fragments” (Journal of the American Chemical Society, 2023)

How the values were obtained:
[1] = target: T1, 14-3-3σ/ERα (Homo sapiens, UniProt P03372+P31947); test: Mass spectrometry dose response, compound binding to 14-3-3σ in the presence of ERα phosphopeptide; conditions: 100 nM compound, 100 nM 14-3-3σ, ERα-peptide 2 µM
T1 construct: The 14-3-3 σ isoform (full-length for mass spectrometry and fluorescence anisotropy assays, ΔC for crystallography); made in house; host or cells: E. coli Rosetta 2(DE3)pLysS, pPROEX HTb vector
From the text: (§1) Two orthogonal assays were developed for screening. For the primary assay, mass spectrometry (MS) was used to monitor the formation of the covalent bond between the compound and the native cysteine (Cys38 on 14-3-3σ) (Figure 1D). The assay was first performed in the absence of peptide to determine binding to 14-3-3σ only (apo screening, D1) and then in the presence of both 14-3-3σ and the peptide as an indication of how much the peptide stabilized compound binding (D2). […] As a secondary assay, fluorescence anisotropy (FA) was used. In this case, compounds were titrated to mixtures of 14-3-3σ and FAM-labeled peptides. […] Thus, the two assays are highly complementary; the MS assay reports on compound binding and the FA assay reports on peptide binding. […]
(§2) Mass spectrometry dose response assays were performed on a Waters Acquity UPLC/ Xevo G2-XS Q-Tof mass spectrometer. A Waters UPLC Protein BEH-C4 Column (300 Å, 1.7 μm, 2.1 mm x 50 mm) was used to desalt the samples prior to application on the mass spectrometer. For 19-point MS dose responses, 50 mM compound stocks in DMSO were serially diluted in 3-fold increment in a master plate, then 1000 nl of the compounds were transferred in the assay plates. Master mixes containing 100 nM full-length wild type 14-3-3σ in the absence or presence of […]
(§3) Assay buffer was TRIS (10 mM, pH 8.0) and final volume per well was 50 μl, with final top concentration of compounds dose response series at 1 mM. The reaction mixtures were incubated for 1h at rt before subjected to MS. Four measurements (1h, 8h, 16h, 24h) were performed for time-course experiments. The injection volume for each sample was 6 μl. 24 μl of sample were needed for the time-course experiments, so the total volume in the assay plate was adjusted to 50 μl, to account for the dead volume in the injections. Data collection and automated processing followed a custom workflow, as previously described.1 z Plots were created using GraphPad Prism with the log(agonist) vs. response (variable slope, four parameters) fitting model. […]

[2] = target: T2, 14-3-3σ/C-RAF (Homo sapiens, UniProt P31947); test: Mass spectrometry dose response, compound binding to 14-3-3σ in the presence of C-RAF phosphopeptide; conditions: 100 nM compound, 100 nM 14-3-3σ, C-RAF peptide 18 µM
T2 construct: The 14-3-3 σ isoform (full-length for mass spectrometry and fluorescence anisotropy assays, ΔC for crystallography); made in house; host or cells: E. coli Rosetta 2(DE3)pLysS, pPROEX HTb vector
T2 sequence (P31947 1-248): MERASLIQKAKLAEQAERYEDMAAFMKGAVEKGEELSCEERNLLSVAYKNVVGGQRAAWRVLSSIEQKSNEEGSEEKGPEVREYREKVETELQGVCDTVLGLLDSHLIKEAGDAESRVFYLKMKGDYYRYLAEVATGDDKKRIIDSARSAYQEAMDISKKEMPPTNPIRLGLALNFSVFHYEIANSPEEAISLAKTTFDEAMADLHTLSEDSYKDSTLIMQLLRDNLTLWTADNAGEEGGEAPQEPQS
From the text: as §1, §2, §3

[3] = target: T1, 14-3-3σ/ERα; test: Fluorescence anisotropy compound titration, FAM-labeled ERα peptide; assay type: binding; conditions: 10 nM ERα-FAM labeled peptide, 1 µM 14-3-3σ, overnight incubation (24 h); read-out: EC50 value ERα (FA compound titration)
From the text: as §1
diluted in buffer (10 mM HEPES, pH 7.5, 150 mM NaCl, 0.1% Tween20, 1 mg/mL Bovine Serum Albumin (BSA; Sigma-Aldrich). Final DMSO in the assay was always 1%. Dilution series of 14-3-3 proteins or compounds were made in […]
Compound titrations were made by titrating the compound in a 2-fold dilution series (starting at 500 or 1000 µM) to a mix of fluorescein-labeled peptide (10 nM) and 14-3-3σ (concentration at approximately the EC20 to EC30 value of the protein-peptide complex; 1 µM for ERα and 5 µM for C-RAF). Using the ~EC25 value makes the assay sensitive for measuring an increase in PPI formation. Fluorescence anisotropy measurements were performed directly and after overnight incubation at room temperature. […]
Wells containing only FAM-peptide were used to set as G-factor at 35 mP. Data reported are at endpoint. EC50 and apparent Kd values were obtained from fitting the data with a four-parameter logistic model (4PL) in GraphPad Prism 7 for Windows. Data was obtained and averaged based on either three (compound titrations) or two (protein titrations) independent experiments.

[4] = target: T3, 14-3-3σ (Homo sapiens, UniProt P31947); test: Mass spectrometry dose response, compound binding to 14-3-3σ in the absence of peptide (apo); conditions: 100 nM compound, 100 nM 14-3-3σ
T3 construct: The 14-3-3 σ isoform (full-length for mass spectrometry and fluorescence anisotropy assays, ΔC for crystallography); made in house; host or cells: E. coli Rosetta 2(DE3)pLysS, pPROEX HTb vector
T3 sequence (P31947 1-248): T2 sequence (P31947 1-248)
From the text: as §1, §2, §3

| SMILES | Percentage (%) bound of compound to 14-3-3σ, ERα 1h [1] [%] | Percentage (%) bound of compound to 14-3-3σ, ERα 8h [1] [%] | Percentage (%) bound of compound to 14-3-3σ, ERα 16h [1] [%] | Percentage (%) bound of compound to 14-3-3σ, ERα 24h [1] [%] | Percentage (%) bound of compound to 14-3-3σ, CRAF 1h [2] [%] | Percentage (%) bound of compound to 14-3-3σ, CRAF 8h [2] [%] | Percentage (%) bound of compound to 14-3-3σ, CRAF 24h ([2]; 24h) [%] | Percentage (%) bound of compound to 14-3-3σ, CRAF 24h ([2]; head prints 24h) [%] | EC50 [3] [µM] | Percentage (%) bound of compound to 14-3-3σ, APO 1h [4] [%] | Percentage (%) bound of compound to 14-3-3σ, APO 8h [4] [%] | Percentage (%) bound of compound to 14-3-3σ, APO 16h [4] [%] | Percentage (%) bound of compound to 14-3-3σ, APO 24h [4] [%] |
| --- | --- | --- | --- | --- | --- | --- | --- | --- | --- | --- | --- | --- | --- |
| C=CS(=O)(=O)NCC1CCN(C(=O)C(C)(C)Oc2ccc(Cl)cc2)CC1 [compound 17] | 0.8 | 4.7 | 11.0 | 18.8 | 4.7 | 8.0 | 32.4 | 11.6 | 33 ± 1 | 0 | 0 | 1.0 | 1.0 |
| CC(C)(Oc1ccc(Cl)cc1)C(=O)N1CCC(CCC(=O)CCl)CC1 [compound 37] | 56.4 | 97.6 | 100 | 100 | 98.8 | 99.9 | 100 | 99.9 | 44 ± 2 | 12.0 | 40.8 | 72.0 | 90.3 |
| O=C(CCl)NCC1CCN(C(=O)C2(Nc3ccccc3)CCC2)CC1 [compound 98] | 0 | 0 | 0 | 0 | 0 | 0 | 0 | 0 | > 150 | 0 | 1.5 | 4.0 | 4.0 |
| O=C(CCl)NCC1CCN(C(=O)C2(Nc3ccccc3)CCCCC2)CC1 [compound 121] | 0 | 0 | 0 | 0 | 0 | 0 | 0 | 0 | > 150 | 0 | 0 | 0 | 0 |
| Cl.O=C(CCl)NCC1CCN(C(=O)C2(Nc3ccccc3)CCNCC2)CC1 [compound 133] | 4.5 | 12.9 | 26.7 | 47.0 | 0 | 1.0 | 1.1 | 1.1 | 115 | 0.7 | 1.1 | 1.2 | 10.3 |
| Cl.NC1CCC(Oc2ccccc2)(C(=O)N2CCC(CNC(=O)CCl)CC2)CC1 (stereo not shown) [compound 139] | 0 | 0 | 0 | 1.0 | 0 | 0 | 1.0 | 0 | > 150 | 0 | 0 | 2.0 | 2.0 |
| Cl.NC1CCC(Nc2ccccc2)(C(=O)N2CCC(CNC(=O)CCl)CC2)CC1 (stereo not shown) [compound 141] | 1.0 | 10.2 | 83.3 | 89.9 | 1.0 | 2.9 | 22.1 | 16.3 | > 150 | 0 | 0 | 0.8 | 25.6 |
